# Values quoted from earlier work as cited in patent publication US11497741B2, “Granules containing diamine derivative” (DAIICHI SANKYO COMPANY, LIMITED, priority 2018, dated 2022).
structure (smiles),measurement,setting,value
"CN1CCc2nc(C(=O)N[C@@H]3C[C@@H](C(=O)N(C)C)CC[C@@H]3NC(=O)C(=O)Nc3ccc(Cl)cn3)sc2C1 [Edoxaban, N^1-(5-Chloropyridin-2-yl)-N^2-((1S,2R,4S)-4-[(dimethylamino)carbonyl]-2-{[(5-methyl-4,5,6,7-tetrahydrothiazolo[5,4-c]pyridin-2-yl)carbonyl]amino}cyclohexyl)ethanediamide]",solubility (water solubility),neutral aqueous solution (neutral buffer solution),reduced solubility
same,solubility,strongly acidic aqueous solution,good solubility
